Test results as given in patent US8178506B2, “Oligomeric compounds and compositions for use in modulation of small non-coding RNAs” (Regulus Therapeutics Inc., priority 2003, dated 2012).
In the oligonucleotide strings, read from the 5' end, every base follows the letter of its sugar. An asterisk marks phosphorothioate; unmarked linkages are phosphodiester. Other units and linkages are bracketed, terminal groups are in braces. A string of capitals states the bases alone. e = 2'-O-(2-methoxyethyl) (MOE); [5mC] = 5-methylcytosine; d = 2'-deoxy (DNA)

Test system: differentiated adipocytes
Assay: Hallmark genes and triglycerides in differentiated adipocytes
Type: cell-based, human
Conditions: Table 28; differentiated adipocytes transfected day nine post-differentiation; 250 nM oligonucleotide
Description: The effect of the oligomeric compounds of the present invention targeting miRNAs on the expression of markers of cellular differentiation was examined in differentiated adipocytes.
As previously described, the HSL, aP2, Glut4, and PPARγ genes play important rolls in the uptake of glucose and the metabolism and utilization of fats. Also as previously described, an increase in triglyceride content is another well-established marker for adipocyte differentiation. Human white preadipocytes (Zen-Bio Inc., Research Triangle Park, N.C.) were grown in preadipocyte media (ZenBio Inc.). After the cells reached confluence (approximately three days), they were exposed to differentiation media (Zen-Bio, Inc.) containing a PPAR-γ agonist, IBMX, dexamethasone, and insulin for three days. Cells were then fed Adipocyte Medium (Zen-Bio, Inc.), which was replaced at 2 to 3 day intervals. One day before transfection, 96-well plates were seeded with 3000 cells/well. Cells were then transfected on day nine post-differentiation, according to standard published procedures with 250 nM oligonucleotide in LIPOFECTIN™ (Invitrogen Corporation, Carlsbad, Calif.) (Monia et al., J. Biol. Chem. 1993 268(19):14514-22). Oligomeric compounds were tested in triplicate on each 96-well plate, and the effect of TNF-α, known to inhibit adipocyte differentiation, was also measured in triplicate. Oligomeric compound treatments and transfectant-only negative controls may be measured up to six times per plate. On day twelve post-differentiation, cells were washed and lysed at room temperature, and the expression of the four hallmark genes, HSL, aP2, Glut4, and PPARγ, as well as triglyceride (TG) accumulation were measured in adipocytes transfected with the uniform 2′-MOE phosphorothioate (PS) previously described in Example 13 as well as the chimeric gapmer oligomeric compounds targeting the mir-143 miRNA and the mir-143 pri-miRNA described in Example 16. On day twelve post-differentiation, cells were lysed in a guanadinium-containing buffer and total RNA was harvested. The amount of total RNA in each sample was determined using a Ribogreen Assay (Molecular Probes, Eugene, Oreg.). Real-time PCR was performed on the total RNA using primer/probe sets for the adipocyte differentiation hallmark genes Glut4, HSL, aP2, and PPARγ. Triglyceride levels as well as mRNA levels for each of the four adipocyte differentiation hallmark genes are expressed relative to control levels (control=treatment with ISIS-29848 (SEQ ID NO: 737)).

Substance | Glut4 | HSL | PPAR gamma | TG | aP2
327876 (antisense eA*eA*e[5mC]*eA*e[5mC]*eT*eG*eA*eT*eT*eT*e[5mC]*eA*eA*eA*eT*eG*eG*eT*eG*e[5mC]*eT*eA) [compound 327876] | 3.53 | 0.81 | 1.28 | 1.16 | 0.67
327878 (antisense e[5mC]*eT*eA*eG*eT*eG*eG*eT*e[5mC]*e[5mC]*eT*eA*eA*eA*e[5mC]*eA*eT*eT*eT*e[5mC]*eA*e[5mC]) [compound 327878] | 0.17 | 0.19 | 0.85 | 1.08 | 0.13
327880 (antisense eA*e[5mC]*eA*eA*eA*eT*eT*e[5mC]*eG*eG*eT*eT*e[5mC]*eT*eA*e[5mC]*eA*eG*eG*eG*eT*eA) [compound 327880] | 0.76 | 0.93 | 1.86 | 1.12 | 1.14
327888 (antisense eA*eA*eT*eG*e[5mC]*e[5mC]*e[5mC]*e[5mC]*eT*eA*eA*eA*eA*eA*eT*e[5mC]*e[5mC]*eT*eT*eA*eT) [compound 327888] | 0.56 | 0.84 | 1.69 | 1.13 | 0.73
327889 (antisense eG*eT*eG*eG*eT*eA*eA*eT*e[5mC]*e[5mC]*e[5mC]*eT*eG*eG*e[5mC]*eA*eA*eT*eG*eT*eG*eA*eT) [compound 327889] | 0.99 | 0.77 | 1.63 | 1.09 | 1.12
327890 (antisense eA*eG*e[5mC]*eA*e[5mC]*eA*eA*eA*e[5mC]*eT*eA*e[5mC]*eT*eA*e[5mC]*e[5mC]*eT*e[5mC]*eA) [compound 327890] | 0.37 | 0.42 | 1.05 | 1.13 | 0.35
327892 (antisense eA*e[5mC]*eT*eT*eT*e[5mC]*eG*eG*eT*eT*eA*eT*e[5mC]*eT*eA*eG*e[5mC]*eT*eT*eT*eA) [compound 327892] | 0.42 | 0.62 | 1.01 | 1.23 | 0.81
327901 (antisense eT*eG*eA*eG*e[5mC]*eT*eA*e[5mC]*eA*eG*eT*eG*e[5mC]*eT*eT*e[5mC]*eA*eT*e[5mC]*eT*e[5mC]*eA) [compound 327901] | 2.20 | 1.47 | 1.34 | 1.12 | 1.28
327903 (antisense eA*eA*e[5mC]*eT*eA*eT*eA*e[5mC]*eA*eA*e[5mC]*e[5mC]*eT*eA*e[5mC]*eT*eA*e[5mC]*e[5mC]*eT*e[5mC]*eA) [compound 327903] | 0.36 | 0.53 | 0.91 | 1.12 | 0.56
327913 (antisense eA*eA*e[5mC]*e[5mC]*eG*eA*eT*eT*eT*e[5mC]*eA*eA*eA*eT*eG*eG*eT*eG*e[5mC]*eT*eA*eG) [compound 327913] | 1.52 | 1.09 | 1.29 | 1.12 | 1.05
327919 (antisense eG*eA*eA*eA*e[5mC]*e[5mC]*e[5mC]*eA*eG*e[5mC]*eA*eG*eA*e[5mC]*eA*eA*eT*eG*eT*eA*eG*e[5mC]*eT) [compound 327919] | 1.82 | 0.83 | 1.80 | 1.15 | 1.20
327922 (antisense eT*e[5mC]*eA*eG*eT*eT*eT*eT*eG*e[5mC]*eA*eT*eG*eG*eA*eT*eT*eT*eG*e[5mC]*eA*e[5mC]*eA) [compound 327922] | 0.61 | 1.01 | 0.99 | 1.48 | 0.91
327925 (antisense eT*eA*eG*e[5mC]*eT*eG*eG*eT*eT*eG*eA*eA*eG*eG*eG*eG*eA*e[5mC]*e[5mC]*eA*eA) [compound 327925] | 0.74 | 1.20 | 1.30 | 1.33 | 0.78
327933 (antisense eA*eA*eG*eG*eG*eA*eT*eT*e[5mC]*e[5mC]*eT*eG*eG*eG*eA*eA*eA*eA*e[5mC]*eT*eG*eG*eA*e[5mC]) [compound 327933] | 2.12 | 1.30 | 1.60 | 1.63 | 1.58
327934 (antisense eG*eG*eT*eA*e[5mC]*eA*eA*eT*e[5mC]*eA*eA*e[5mC]*eG*eG*eT*e[5mC]*eG*eA*eT*eG*eG*eT) [compound 327934] | 1.52 | 1.97 | 1.54 | 1.43 | 1.50
327941 (antisense eA*eA*e[5mC]*e[5mC]*e[5mC]*eA*e[5mC]*e[5mC]*eG*eA*e[5mC]*eA*eG*e[5mC]*eA*eA*eT*eG*eA*eA*eT*eG*eT*eT) [compound 327941] | 0.90 | 1.17 | 1.66 | 1.33 | 0.90
327954 (antisense eA*e[5mC]*eA*eA*eA*eG*eT*eT*e[5mC]*eT*eG*eT*eG*eA*eT*eG*e[5mC]*eA*e[5mC]*eT*eG*eA) [compound 327954] | 0.61 | 1.35 | 1.46 | 1.46 | 1.23
328382 (e[5mC]*eA*eG*eA*e[5mC]*dT*d[5mC]*d[5mC]*d[5mC]*dA*dA*d[5mC]*dT*dG*dA*e[5mC]*e[5mC]*eA*eG*eA) [compound 328382] | 0.75 | 0.53 | 0.97 | 1.33 | 0.92
338664 (antisense e[5mC]*eA*eG*eA*e[5mC]*eT*e[5mC]*e[5mC]*e[5mC]*eA*eA*e[5mC]*eT*eG*eA*e[5mC]*e[5mC]*eA*eG*eA) [compound 338664] | 1.08 | 1.01 | 1.06 | 1.72 | 0.77
340927 (antisense eT*eG*eA*eG*e[5mC]*dT*dA*d[5mC]*dA*dG*dT*dG*d[5mC]*dT*dT*e[5mC]*eA*eT*e[5mC]*eT*e[5mC]*eA) [compound 340927] | 0.96 | 0.64 | 1.21 | 1.61 | 0.71
